Values after ≈ are worked out from the molar mass of the structure shown.
Legend:
Assay in all cases: In vitro antibacterial activity, microtitration dilution method
Assay type in all cases: cell-based
[1] = tested on: Enterobacter cloacae MA 2646; details: MA2646, read-out: Minimal Inhibitory Concentration MIC
Source text: (§1) The compounds of the invention display anti-bacterial activity when tested by the microtitration dilution method as described in Heifetz, et al, Antimicr. Agents & Chemoth., 6, 124 (1974), which is incorporated herein by reference and illustrated in the following table.

Escherichia coli Vogel = details: read-out: Minimal Inhibitory Concentration MIC
Source text: as §1

[2] = tested on: Klebsiella pneumoniae MGH-2; details: MGH2, read-out: Minimal Inhibitory Concentration MIC
Source text: as §1

Proteus rettgeri M 1771 = details: Providencia rettgeri, M1771, read-out: Minimal Inhibitory Concentration MIC
Source text: as §1

[3] = tested on: Pseudomonas aeruginosa UI-18; details: UI18, read-out: Minimal Inhibitory Concentration MIC
Source text: as §1

[4] = tested on: Staphylococcus aureus H 228; details: H228, read-out: Minimal Inhibitory Concentration MIC
Source text: as §1

[5] = tested on: Staphylococcus aureus UC-76; details: UC76, read-out: Minimal Inhibitory Concentration MIC
Source text: as §1

[6] = tested on: Streptococcus faecalis MGH-2; details: Enterococcus faecalis, MGH2, read-out: Minimal Inhibitory Concentration MIC
Source text: as §1

[7] = tested on: Streptococcus pneumoniae SV-1; details: SV1, read-out: Minimal Inhibitory Concentration MIC
Source text: as §1

[8] = tested on: Streptococcus pyogenes C-203; details: C203, read-out: Minimal Inhibitory Concentration MIC
Source text: as §1

SMILES | MIC [1] [µg/mL] | MIC (Escherichia coli Vogel) [µg/mL] | MIC [2] [µg/mL] | MIC (Proteus rettgeri M 1771) [µg/mL] | MIC [3] [µg/mL] | MIC [4] [µg/mL] | MIC [5] [µg/mL] | MIC [6] [µg/mL] | MIC [7] [µg/mL] | MIC [8] [µg/mL]
CCNCC1CCN(c2c(F)cc3c(=O)c(C(=O)O)cn(-c4ccc(F)cc4)c3c2F)C1 (stereo not drawn) [Ex. 1] | 0.8 (≈ 1.8 µM) | 0.8 (≈ 1.8 µM) | 1.6 (≈ 3.59 µM) | 1.6 (≈ 3.59 µM) | 1.6 (≈ 3.59 µM) | 0.1 (≈ 0.224 µM) | 0.2 (≈ 0.449 µM) | 0.2 (≈ 0.449 µM) | 0.4 (≈ 0.898 µM) | 0.4 (≈ 0.898 µM)
CCNCC1CCN(c2c(F)cc3c(=O)c(C(=O)O)cn(-c4ccccc4)c3c2F)C1 (stereo not drawn) [Ex. 3, 7-[3-[(Ethylamino)methyl]-1-pyrrolidinyl]-6,8-difluoro-1,4-dihydro-4-oxo-1-phenyl-3-quinolinecarboxylic acid] | 1.6 (≈ 3.74 µM) | 1.6 (≈ 3.74 µM) | 1.6 (≈ 3.74 µM) | 6.3 (≈ 14.7 µM) | 6.3 (≈ 14.7 µM) | 0.8 (≈ 1.87 µM) | 0.2 (≈ 0.468 µM) | 0.8 (≈ 1.87 µM) | 1.6 (≈ 3.74 µM) | 1.6 (≈ 3.74 µM)
NCC1CCN(c2c(F)cc3c(=O)c(C(=O)O)cn(-c4ccccc4)c3c2F)C1 (stereo not drawn) [Ex. 4, 7-[3-(Aminomethyl)-1-pyrrolidinyl]-6,8-difluoro-1,4-dihydro-4-oxo-1-phenyl-3-quinoline carboxylic acid] | 0.4 (≈ 1 µM) | 0.2 (≈ 0.501 µM) | 0.8 (≈ 2 µM) | 1.6 (≈ 4.01 µM) | 1.6 (≈ 4.01 µM) | 0.2 (≈ 0.501 µM) | 0.1 (≈ 0.25 µM) | 0.2 (≈ 0.501 µM) | 0.2 (≈ 0.501 µM) | 0.2 (≈ 0.501 µM)
